Here are results for three compounds from patent publication US5380834A, “Immuno-suppressive agent” (Ishihara Sangyo Kaisha Ltd., priority 1992, dated 1995).

Assay [1] has as its system Carrageenan-induced acute inflammation in rats. The assay is described as follows: Carrageenan-induced paw edema model (anti-inflammatory activity). The assay is classed as in vivo, SD male rat. Particulars: 50 mg/Kg orally one hour before carrageenan, 3 hours, n=4; control 144 ± 8; P < 0.01 (No. 29), P < 0.05 (Nos. 1, 17). As for the experimental part: A test for an anti-inflammatory activity was conducted by means of carrageenan-induced paw edema model which is commonly used for evaluation of the effectiveness of a common anti-inflammatory agent (NSAID).
0.1 ml of a 1% λ-carrageenan solution was injected intradermally at the sole of the right paw of a SD male rat (six weeks old). Three hours later, the sole volumes of paws on both sides were measured, and the difference in the volume between the right paw and the left paw was taken as the degree of edema. The test compound was orally administered in an amount of 1 ml/100 g (body weight) one hour prior to the administration of carrageenan. To the control group, a physiological saline was administered in the same amount.
In general terms: In the carrageenan paw model, swelling and tenderness develop within hours.

The test system of assay [2] is murine mixed lymphocyte reaction (spleen cells of BALB/c and C57BL/6 mice). The assay is described as follows: Effects on the murine mixed lymphocyte reaction (3H-TdR uptake). The assay is classed as cell-based. Particulars: Mus musculus, BALB/c + C57BL/6 spleen cells, 48 hours, read-out: IC50 value, b (murine mixed lymphocyte reaction).
Assay [3] relates to IgGl antibody production from murine spleen B cells. The assay is described as follows: Effects on the IgGl antibody production from murine spleen cells (LPS + IL4). The assay is classed as cell-based, BALB/c mouse. Particulars: Mus musculus, B-cell, 168 h; spleen B cells, LPS 10 μg/ml, IL4 100 U/ml, 7 days, enzyme-immunoassay; read-out: IC50 value, IgGl antibody production.
The test system of assay [4] is IgM antibody production from murine spleen B cells. The assay can be described thus: Effects on the IgM antibody production from murine spleen cells (LPS + IL4). It counts as cell-based, BALB/c mouse. The settings on record: Mus musculus, B-cell, 168 h; spleen B cells, LPS 10 μg/ml, IL4 100 U/ml, 7 days, enzyme-immunoassay; read-out: IC50 value, IgM antibody production.

Some results are limits rather than exact numbers.

As for `O[C@H]1C=C[C@H]2CO[C@@H]1O2` [Compound 1, 1,6-anhydro-3,4-dideoxy-β-D-threo-hex-3-enopyranose], in assay [1], the “Swelling of paw, Average ± SD” value is reported as 100 ± 33 × 10^-2 cm^3. The IC50 in assay [2] stood at 11 µg/mL; in assay [3] it was 37 µg/mL; in assay [4] it was 25 µg/mL.

Turning to `O=C(O[C@H]1C=C[C@H]2CO[C@@H]1O2)c1ccco1` [Compound 17, 1,6-anhydro-3,4-dideoxy-2-O-(2-furancarbonyl)-β-D-threo-hex-3-enopyranose], in assay [1], the “Swelling of paw, Average ± SD” value is 95 ± 26 × 10^-2 cm^3. The concentration for half-maximal inhibition (IC50) in assay [2] is 270 µg/mL; in assay [3], 1 µg/mL; in assay [4], 100 µg/mL.

In the case of `C#C[C@]1(O)C=C[C@H]2CO[C@@H]1O2` [Compound 29], in assay [1], the “Swelling of paw, Average ± SD” value is 97 ± 22 × 10^-2 cm^3. The IC50 is over 1000 µg/mL in assay [2], 380 µg/mL in assay [3] and over 1000 µg/mL in assay [4].

The term IC50 denotes the midpoint of a concentration-inhibition curve.
